US8802597B2, “Herbicidal pyrimidines” (E I du Pont de Nemours and Company, priority 2003, dated 2014)

Legend:
Format in all cases: in vivo
[1] = system: Surinam grass (Brachiaria decumbens); assay: Test B pre/postemergence
Summary of the method: (§1)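 Visual rating, 0 (no effect) to 100 (complete control) versus controls, taken 13–15 days after treatment in greenhouse. Compounds formulated in non-phytotoxic solvent plus surfactant; pre: sprayed after seeding; post: plants at 1- to 4-leaf stage, 2–18 cm.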

[2] = system: barnyardgrass (Echinochloa crus-galli); assay: Test B pre/postemergence
Summary of the method: as §1

[3] = system: cocklebur (Xanthium strumarium); assay: Test B pre/postemergence
Summary of the method: as §1

corn (Zea mays) = assay: Test B pre/postemergence
Summary of the method: as §1

[4] = system: crabgrass (Digitaria sanguinalis); assay: Test B pre/postemergence
Summary of the method: as §1

[5] = system: giant foxtail (Setaria faberii); assay: Test B pre/postemergence
Summary of the method: as §1

[6] = system: lambsquarters (Chenopodium album); assay: Test B pre/postemergence; conditions: for Lambsquarters plant response rating: scale 0 to 100 (0 no effect, 100 complete control)
Summary of the method: as §1

[7] = system: morningglory (Ipomoea coccinea); assay: Test B pre/postemergence
Summary of the method: as §1

[8] = system: pigweed (Amaranthus retroflexus); assay: Test B pre/postemergence
Summary of the method: as §1

[9] = system: velvetleaf (Abutilon theophrasti); assay: Test B pre/postemergence
Summary of the method: as §1

[10] = system: wheat (Triticum aestivum); assay: Test B pre/postemergence
Summary of the method: as §1

[11] = system: blackgrass (Alopecurus myosuroides); assay: Test B postemergence
Summary of the method: as §1

wild oat (Avena fatua) = assay: Test B postemergence
Summary of the method: as §1

[12] = system: barnyardgrass (Echinochloa crus-galli); assay: Test B flooded paddy test; conditions: Flood, 1000 g ai/ha; scale 0 (no effect) to 100 (complete control)
Summary of the method: (§2)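 Plants were grown to the 2-leaf stage before treatment, then kept in a greenhouse for 13 to 15 days. Injury was rated visually against untreated controls on a 0 to 100 scale, where 0 is no effect and 100 is complete control.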

[13] = system: duck salad (Heteranthera limosa); assay: Test B flooded paddy test; conditions: Flood, 1000 g ai/ha; scale 0 to 100
Summary of the method: as §2

rice (Oryza sativa) = assay: Test B flooded paddy test; conditions: Flood, 1000 g ai/ha; scale 0 to 100
Summary of the method: as §2

[14] = system: umbrella sedge (Cyperus difformis); assay: Test B flooded paddy test; conditions: Flood, 1000 g ai/ha; scale 0 to 100
Summary of the method: as §2

[15] = Postemergence, 125 g ai/ha, scale 0 to 100 (0 no effect, 100 complete control)
[16] = Postemergence, 500 g ai/ha, scale 0 to 100
[17] = Preemergence, 125 g ai/ha, scale 0 to 100 (0 no effect, 100 complete control)
[18] = Preemergence, 500 g ai/ha, scale 0 to 100 (0 no effect, 100 complete control)
[19] = 125 g ai/ha, scale 0 to 100 (0 no effect, 100 complete control)

SMILES: COC(=O)CNc1nc(C2CC2)nc(C(=O)OC)c1Br [Compound 10]
- Surinam Grass plant response rating [1, 15]: 10
- Plant response rating, Surinam Grass [1, 16]: 10
- Plant response rating, Surinam Grass [1, 17]: 0
- Surinam Grass plant response rating [1, 18]: 0
- Barnyardgrass plant response rating [2, 15]: 0
- Plant response rating, Barnyardgrass [2, 16]: 10
- Plant response rating, Barnyardgrass [2, 17]: 20
- Barnyardgrass plant response rating [2, 18]: 50
- Cocklebur plant response rating [3, 15]: 60
- Plant response rating, Cocklebur [3, 16]: 70
- Plant response rating, Cocklebur [3, 17]: 80
- Cocklebur plant response rating [3, 18]: 90
- Corn plant response rating (corn (Zea mays); [15]): 0
- Plant response rating, Corn (corn (Zea mays); [16]): 0
- Plant response rating, Corn (corn (Zea mays); [17]): 0
- Corn plant response rating (corn (Zea mays); [18]): 0
- Crabgrass plant response rating [4, 15]: 30
- Plant response rating, Crabgrass [4, 16]: 40
- Plant response rating, Crabgrass [4, 17]: 20
- Crabgrass plant response rating [4, 18]: 60
- Foxtail, Giant plant response rating [5, 15]: 0
- Plant response rating, Foxtail, Giant [5, 16]: 10
- Plant response rating, Foxtail, Giant [5, 17]: 0
- Foxtail, Giant plant response rating [5, 18]: 20
- Lambsquarters plant response rating ([6]; Postemergence, 125 g ai/ha): 80
- Plant response rating, Lambsquarters [6, 16]: 90
- Lambsquarters plant response rating ([6]; Preemergence, 500 g ai/ha): 90
- Morningglory plant response rating [7, 15]: 80
- Plant response rating, Morningglory [7, 16]: 80
- Plant response rating, Morningglory [7, 17]: 80
- Morningglory plant response rating [7, 18]: 90
- Pigweed plant response rating [8, 15]: 80
- Plant response rating, Pigweed [8, 16]: 90
- Plant response rating, Pigweed [8, 17]: 80
- Pigweed plant response rating [8, 18]: 90
- Velvetleaf plant response rating [9, 15]: 50
- Plant response rating, Velvetleaf [9, 16]: 80
- Plant response rating, Velvetleaf [9, 17]: 80
- Velvetleaf plant response rating [9, 18]: 90
- Wheat plant response rating [10, 15]: 0
- Plant response rating, Wheat [10, 16]: 0
- Plant response rating, Wheat [10, 17]: 0
- Wheat plant response rating [10, 18]: 0
- Blackgrass plant response rating [11, 19]: 0
- Plant response rating, Blackgrass ([11]; 500 g ai/ha, scale 0 to 100): 0
- Oat, Wild plant response rating (wild oat (Avena fatua); [19]): 0
- Plant response rating, Oat, Wild (wild oat (Avena fatua); 500 g ai/ha, scale 0 to 100): 10
- Plant response rating, Barnyardgrass [12]: 0
- Plant response rating, Ducksalad [13]: 0
- Plant response rating, Rice (rice (Oryza sativa)): 0
- Plant response rating, Sedge, Umbrella [14]: 0
